Here are results for seven molecules from article PMC1968602 (British Journal of Cancer, 1993).

Series [1] has as its system diarrhea induced by this combination regimen. The series is described as follows: Antidiarrheal treatment of diarrhea induced by CPT-11 plus cisplatin. Format: in vivo, human. As to conditions: for response of grade 3 diarrhea to antidiarrheal agent: diarrhea at CPT-11 90 mg m-2 plus cisplatin 60 mg m-2. The procedure: (§1) All subjects gave written informed consent to the study. […] No intrapatient dose escalation was performed. […] Bone marrow aspiration was also performed in SCLC patients. […] Arrows indicate the com- pletion of infusion.

The next series can be described thus: clinical. The procedure: as §1
For series [2] the following is noted: ref Negoro et al., 1991a, cited from earlier work; for AUC of CPT-11: single agent weekly infusion.
The next series concerns advanced lung cancer. In words: Tumour response (World Health Organization criteria) to CPT-11 plus cisplatin. It counts as in vivo, human. The procedure: as §1
The subject of series [3] is patients with advanced NSCLC. As to conditions: ref Masuda et al., 1992b, cited from earlier work.
The subject of series [4] is patients with advanced lung cancer.
Source text: All subjects gave written informed consent to the study. […] The study was approved in advance by this hospital's Institu- tional Review Board. […] Patients who stabilised or improved received at least a second course while patients with obvious evidence of disease progression were removed from the study. Before the next course was started, the leukocyte count had to be at least 4,000fil-', and the platelet count had to be at least 100,00011-. If more than 6 weeks passed from the time of the last treatment before these criteria were satisfied, the patients were removed from the study. No intrapatient dose escalation was performed. Once the maximum tolerated dose was reached (90 mg m-2), five additional patients were treated at the preceding dose level of 80mgm2. Evaluation The stage of disease was determined by a complete medical history and physical examination, routine chest radiography, whole-lung tomography, bone scintiscanning, computed tomography of the head, chest, and abdomen, and fiberoptic bronchoscopy. Bone marrow aspiration was also performed in SCLC patients. […] Prior to the first course of treatment, a complete blood count (includ- ing a differential white cell count and platelet count), biochemistry tests (renal and hepatic function, and elec- trolytes), and urinalysis were performed. Then the blood count, biochemistry tests, urinalysis, and chest X-rays were repeated at least once a week after this initial evaluation. Other investigations were repeated as necessary to evaluate marker lesions. After the completion of chemotherapy, each patient was restaged with all the tests used during the initial work-up. The eligibility, evaluability and response of each patient were assessed by extramural reviewers. […] The duration of each response was defined as the number of days from the documentation of response until tumour progression. ECOG common toxicity criteria were used to grade organ damage. The maximum tolerated dose was defined as the dose causing grade 3-4 nonhematologic toxicity (except nausea and vomiting) in at least one-third of the cycles and/or grade 3-4 hematologic toxicity in at least two-third of the cycles included at that level. […] The statistical significance of differ- ences in peak plasma concentrations (Cmax) was determined using unpaired, two-tailed Student's t test. Other statistical analysis was performed using Chi-square test or Fisher's exact test. A P value of less than 0.05 was considered to be statistically significant.
Setting [5] is: dose level 1 (CPT-11 60 mg m-2), individual responders.
Where [6] appears, read: dose level 2 (CPT-11 80 mg m-2).
[7] abbreviates: dose level 3 (CPT-11 90 mg m-2), one responder.
[8] abbreviates: CPT-11 60 mg m-2 plus cisplatin 60 mg m-2, 3 patients.
[9] abbreviates: CPT-11 80 mg m-2 plus cisplatin 60 mg m-2.
Where [10] appears, read: CPT-11 80 mg m-2 plus cisplatin 60 mg m-2, 8 patients.
[11] abbreviates: CPT-11 90 mg m-2 plus cisplatin 60 mg m-2.
Where [12] appears, read: CPT-11 plus cisplatin 60 mg m-2, 28-day cycle.
The mark [13] stands for this setting: all dose levels, CPT-11 plus cisplatin 60 mg m-2.

Where “and” joins values, the source holds several entries; their conditions need not be identical. Equal values may be shown once. Read-outs that look alike come from different tables or passages of the source. Bounds are passed on as bounds.

On to albumin tannate, for which the “response of grade 3 diarrhea to antidiarrheal agent” value (shortened to “response of grade 3 diarrhea”) in series [1] is “refractory”.

On to sandostatin, for which the “effect on grade 3 diarrhea induced by CPT-11 plus cisplatin” value in series [1] (50-100 ug subcutaneously t.i.d. for at least 2 days, three patients) was “ineffective”.

Consider `COc1ccc2c3c1O[C@H]1[C@@H](O)C=C[C@H]4[C@@H](C2)N(C)CC[C@@]341` [codeine phosphate], for which the “response of grade 3 diarrhea” value in series [1] is on record as “resistant”.

For `CCc1c2c(nc3ccc(O)cc13)-c1cc3c(c(=O)n1C2)COC(=O)[C@]3(O)CC` [SN-38, 7-ethyl-10-hydroxycamptothecin], the AUC in “clinical” (human, in vivo, 80 mg) was 0.216 µg·h/mL; in the series “clinical” (human, in vivo, 90 mg) it was 0.34 µg·h/mL. Besides, the “SN-38 terminal half-life, mean (s.d.)” value in “clinical” (human, in vivo, 90 mg) is on record as 22.13 ? 13.28 h. The molecule also came in with a half-life in “clinical” (human, in vivo, 90 mg) of 22.1 ± 13.3 h. The “AUC of SN-38” value was 117 ng ml-1 x hours in series [2] (single-agent CPT-11 50 mg m-2) and 252 ng ml-1 x hours in series [2] (single-agent CPT-11 125 mg m-2).

With `CN1[C@@H]2C[C@@H](OC(=O)[C@H](CO)c3ccccc3)C[C@H]1[C@@H]1O[C@@H]12` [scopolamine], the “response of grade 3 diarrhea” value in series [1] is “refractory”.

As to `CCc1c2c(nc3ccc(OC(=O)N4CCC(N5CCCCC5)CC4)cc13)-c1cc3c(c(=O)n1C2)COC(=O)[C@]3(O)CC` [CPT-11, Irinotecan], in the series on advanced lung cancer (all 14 patients), the “patients showing disease progression” value is on record as “none”. Besides, in the series on advanced lung cancer (all 14 patients), the “patients showing no change” value is recorded as “Eight”. Also, in the series with advanced lung cancer (all 14 patients, CPT-11 60-90 mg m-2 plus cisplatin 60 mg m-2), the overall response rate was found to be 43%. For the same molecule, the Response duration in the series with advanced lung cancer (setting [5]) was 85 days and 170 days; in the series with advanced lung cancer (setting [7]), 98 days. The Time to remission is 42 days and 44 days in the series with advanced lung cancer (setting [5]); 30 days with advanced lung cancer (setting [7]). Moreover, the “No. of responders (%), response rate” value in the series on advanced lung cancer (dose level 1: CPT-11 60 mg m-2 plus cisplatin 60 mg m-2, two of three patients) is 67%; with advanced lung cancer (dose level 2: CPT-11 80 mg m-2 plus cisplatin 60 mg m-2, three of eight patients), 38%; in the series on advanced lung cancer (dose level 3: CPT-11 90 mg m-2 plus cisplatin 60 mg m-2, one of three patients), 33%. In addition, the “Response duration, median (range)” value is 158 (92-208) days in the series on advanced lung cancer (setting [6]) and 128 (85-208) days in the series on advanced lung cancer (total, all dose levels). Further, the “Time to remission, median (range)” value is 41 (30-42) days in the series with advanced lung cancer (setting [6]) and 42 (30-44) days with advanced lung cancer (total, all dose levels). Moreover, the partial responses in the series with advanced lung cancer (five of 14 patients) came to 36%. In addition, the “response rate for NSCLC” value in the series on advanced lung cancer (four of 12 patients) came out at 33%. Besides, the complete response with advanced lung cancer (one of 14 patients) came out at 7%. The “complete response, stage IIIB disease” value in the series with advanced lung cancer (one of seven patients) was 14%. For the same molecule, the “overall response rate, stage IIIB disease” value in the series with advanced lung cancer (seven patients) came to 43%. In addition, the “partial response, stage IV disease” value with advanced lung cancer (three of seven patients) is given as 43%. Further, the “partial responses, stage IIIB disease” value in the series with advanced lung cancer (two of seven patients) is listed as 29%. In addition, the “response rate for SCLC” value in the series on advanced lung cancer (two of two patients) stood at 100%. The “Elimination of CPT-11 from plasma” value in “clinical” (after completion of infusion, two-compartment model) is “biphasic”. In series [3] (CPT-11 days 1, 8, 15 combined with 80 mg m-2 cisplatin day 1, 4-week intervals, advanced NSCLC), the response rate was 54%. Further, the dose-limiting toxicities result in series [3] (combined with 80 mg m-2 cisplatin) was “leukopenia and diarrhea”. In series [3] (in combination with 80 mg m-2 of cisplatin, days 1, 8, 15), the “recommended dose of CPT-11” value was 60 mg m-2. Also, the “AUC of CPT-11” value in series [2] (50 mg m-2) is given as 2.97 ytg ml-' x hours; in series [2] (100 mg m-2) it was 6.37 ytg ml-' x hours; in series [2] (125 mg m-2) it was 9.17 ytg ml-' x hours; in series [2] (150 mg m-2), 11.29 ytg ml-' x hours. Also, the “dose intensity achieved as a single agent” value in series [2] (weekly intravenous infusion) is 100 mg m-2 per week. Further, the “Grade 3 leukopenia, percentage of courses” value in series [4] (CPT-11 60 mg m-2 plus cisplatin 60 mg m-2) came to 33%; in series [4] (setting [9]), 15%; in series [4] (setting [11]) it was 0%. Also, the figures for the “ECOG grade 3 or 4 diarrhea: number of patients exhibiting toxicity in the first course” value in series [4] (setting [8]) and in series [4] (setting [10]) were 0 and 2, respectively. Moreover, the “ECOG grade 3 or 4 leukopenia: number of patients exhibiting toxicity in the first course” value in series [4] (setting [8]) was determined as 2; in series [4] (setting [10]), 2; in series [4] (CPT-11 90 mg m-2 plus cisplatin 60 mg m-2, 3 patients), 0. The “ECOG grade 3 or 4 diarrhea: no. of courses exhibiting toxicity in all courses” value in series [4] (CPT-11 60 mg m-2 plus cisplatin 60 mg m-2, 9 courses) is recorded as 0; in series [4] (CPT-11 80 mg m-2 plus cisplatin 60 mg m-2, 20 courses) it was 3. In addition, the “grade 4 diarrhea” value in series [4] (setting [9]) and in series [4] (setting [11]) was “no grade 4 diarrhea” each time. Also, in series [4] (CPT-11 80 mg m-2 plus cisplatin 60 mg m-2, forced cessation of CPT-11 on day 15), the “skin rash (grade 1), number of patients” value is reported as “one”. Moreover, the “grade 3 diarrhea, percentage of cycles” value in series [4] (CPT-11 80 mg m-2 plus cisplatin 60 mg m-2, three of 20 cycles) worked out at 15%. Moreover, the “grade 3 diarrhea, percentage of patients” value in series [4] (CPT-11 80 mg m-2 plus cisplatin 60 mg m-2, two of eight patients) is listed as 25%. Besides, the dose-limiting toxicity entry in series [4] (CPT-11 90 mg m-2 dose level plus cisplatin 60 mg m-2) is “diarrhea”. In series [4] (setting [11]), the “duration of grade 3 diarrhea” value was 2 to 3 weeks. Further, the “maximum tolerated dose of CPT-11” value in series [4] (CPT-11 i.v. days 1, 8, 15 plus cisplatin 60 mg m-2 day 1, every 28 days) is 90 mg m-2. For the same molecule, the leukocyte nadir in series [4] (setting [12]) was approximately 21 days. Besides, the “recovery from leukocyte nadir in most patients” value in series [4] (setting [12]) was not above 29 days. Further, the “recommended dose for Phase II studies” value in series [4] (CPT-11 days 1, 8, 15 plus cisplatin day 1 at 4-week intervals) amounted to 80 mg m-2. Besides, in series [4] (all dose levels, CPT-11 60-90 mg m-2 plus cisplatin 60 mg m-2, 14 patients), the “Grade 3 leukopenia, number of patients” value is reported as “five”. Besides, the “Grade 3 leukopenia, number of cycles” value in series [4] (all dose levels, CPT-11 60-90 mg m-2 plus cisplatin 60 mg m-2, 33 courses) was “six”. For the same molecule, the Hematologic toxicity result in series [4] (setting [13]) was “relatively mild”. For the same molecule, the “grade 4 leukopenia, patients” value in series [4] (setting [13]) was “none”. The “hepatic, renal, or pulmonary toxicity” value in series [4] (setting [13]) was “no evidence”. The “Grade 3 nausea and vomiting, percentage of courses” value in series [4] (all dose levels, 10 of 33 courses) was 30%. In series [4] (all dose levels, 15 of 33 courses), the “Grade 2 alopecia, percentage of courses” value is recorded as 45%. Moreover, in series [4] (all dose levels, seven of 33 courses), the “Transient eosinophilia ( > 10%), percentage of courses” value was determined as 21%. Also, in series [4] (all dose levels, two occasions in 33 courses), the “Grade 3 anaemia, percentage of courses” value is reported as 6%.

For `CN1[C@@H]2CC[C@H]1C[C@@H](OC(=O)C(CO)c1ccccc1)C2` (stereo partly drawn) [atropine], in series [1], the “response of grade 3 diarrhea” value is “refractory”.

The AUC is concentration integrated over time. In general, half-life refers to the time needed for the level to fall by half in the phase considered. Low values mean rapid decline, high ones slow decline.
